From PubChem BioAssay (NCI) come the findings set out here.

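Step 1: Grow cells in 96-well plates. Step 2: Expose to compound for 48 hours at 5 concentrations. Step 3: Interpolate endpoints linearly; if unreached, use highest concentration. At the TGI there is no net growth.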

Common to all, as to assay: growth of human tumour cells (NCI), 48 h
The subject of experiment [1] is ACHN renal.
Experiment [2] concerns BT-549 breast.
For experiment [3], the system named is KM12 colon.
The subject of experiment [4] is M14 melanoma.
In experiment [5] the test system is MDA-N.
Experiment [6] relates to MOLT-4 leukemia.
The test system of experiment [7] is PC-3 prostate.
Experiment [8] concerns SF-268 CNS.
Experiment [9] relates to SF-295 CNS.
Experiment [10] relates to SK-MEL-2 melanoma.
For experiment [11], the system named is SK-OV-3 ovarian.
Experiment [12] has as its system SR leukemia.

As for `Cc1ccc(C(=O)Nc2ccc(S(=O)(=O)O)c3cc(S(=O)(=O)O)cc(S(=O)(=O)O)c23)cc1NC(=O)c1cccc(NC(=O)Nc2cccc(C(=O)Nc3cc(C(=O)Nc4ccc(S(=O)(=O)O)c5cc(S(=O)(=O)O)cc(S(=O)(=O)O)c45)ccc3C)c2)c1` (tested in a mixture with another compound), the TGI in [1], in experiment [2], in experiment [3], in [4], in [5] and in [6] was over 50 µM throughout. Also, the TGI in experiment [7], in [8], in experiment [9], in experiment [10], in experiment [11] and in experiment [12] was over 50 µM in each case.

Consider `O=C(OCCC12CC3CC(CC(C3)C1)C2)c1ccc(NCc2cc(O)ccc2O)cc1`, for which the TGI was 5.18 µM in [1]; 0.684 µM in [2]; 3.43 µM in [3]; 3.37 µM in [4]; 3.38 µM in [5]; 10.3 µM in experiment [6]. For the same molecule, the TGI came out at 14.5 µM in experiment [7]; 12.7 µM in experiment [8]; 5.25 µM in experiment [9]; 2.83 µM in experiment [10]; 13.1 µM in experiment [11]; 4.43 µM in experiment [12].

For `N#Cc1ccc(Oc2nc3ccc(C(F)(F)F)cc3nc2-c2ccccc2)cc1`, the TGI was 28.4 µM in experiment [1]; over 100 µM in experiment [2]; 48.6 µM in [3]; 29.7 µM in experiment [4]; 57.8 µM in experiment [5]; 43.6 µM in experiment [6]. In addition, the TGI in experiment [7] was found to be 27 µM; in experiment [8] it was 76.4 µM; in experiment [9], 58.2 µM; in experiment [10], 36.9 µM; in experiment [11], 26.9 µM; in experiment [12], 9.86 µM.

For `Cc1nnc(-n2c(O)cc(=O)n(-c3ccccc3)c2=S)nc1/C=C/c1ccc(N(C)C)cc1`, the TGI in experiment [1] is over 49.5 µM; in [2], over 70.7 µM; in experiment [3], 21 µM; in [4], over 100 µM; in experiment [5] it was over 100 µM; in experiment [6] it was over 100 µM. For the same molecule, the TGI in experiment [7] is over 46.2 µM; in experiment [8], over 53.8 µM; in [9], over 62.2 µM; in experiment [10], 41.8 µM; in experiment [11], over 72 µM; in [12], over 100 µM.

With `COc1ccccc1NC(=O)O/N=C(/Cl)C(C)C`, the TGI in experiment [1] was 17.4 µM; in experiment [2], 21.6 µM; in experiment [3] it was 39.3 µM; in [4], 20.3 µM; in [5] it was 26.8 µM; in experiment [6], 4.5 µM. In addition, the TGI amounted to 33.2 µM in experiment [7]; 32.5 µM in experiment [8]; 29.1 µM in experiment [9]; 31 µM in experiment [10]; 32.7 µM in experiment [11]; 4.73 µM in experiment [12].

For the molecule `O=c1cc(N=Nc2ccc(Cl)cc2)[nH]c(=O)[nH]1`, the TGI in [1] came to 5.76 µM; in [2], 8.38 µM; in experiment [3] it was 10.6 µM; in experiment [4], 9.19 µM; in [5] it was 11 µM; in [6], 7.5 µM. Also, the TGI is 11.7 µM in [7]; 12.3 µM in experiment [8]; 22.3 µM in [9]; 21.5 µM in [10]; 22 µM in experiment [11]; 2.67 µM in [12].

Take `CC(NC(=O)C(N)CC(=O)O)NC(=O)N(C)C(C)(C)C` (configuration not stated): the TGI in experiment [1], in [2], in experiment [3], in experiment [4], in experiment [5] and in experiment [6] was over 100 µM in each case. Moreover, the TGI in [7], in experiment [8], in experiment [9], in experiment [10], in experiment [11] and in experiment [12] was over 100 µM throughout.

As to `C=CCCCCCCCCCOC1C=CC(OC(C)=O)C(COC(C)=O)O1` (configuration not stated), the TGI in [1] was over 100 µM; in experiment [2], over 100 µM; in [3], over 100 µM; in [4], 88.9 µM; in experiment [5] it was over 100 µM; in experiment [6] it was 86 µM. The TGI in experiment [7], in [8], in experiment [9], in experiment [10], in experiment [11] and in experiment [12] was over 100 µM in each case.

As to `Nn1c(Cc2ccccc2)n[nH]c1=O`, the TGI in [1], in experiment [2], in experiment [3], in experiment [4], in [5] and in [6] was over 100 µM throughout. For the same molecule, the TGI in experiment [7], in experiment [8], in experiment [9], in experiment [10], in experiment [11] and in experiment [12] was over 100 µM throughout.

As to `C=C(C(=O)OC)c1cc2ccccc2n1S(=O)(=O)c1ccccc1`, the TGI in experiment [1] is 5.89 µM; in experiment [2], 5.12 µM; in [3], 5.99 µM; in [4], 9.55 µM; in experiment [5] it was 14 µM; in experiment [6], over 24 µM. The TGI in experiment [7] was 9.51 µM; in experiment [8], 8.22 µM; in experiment [9], 20.8 µM; in experiment [10], 10.5 µM; in [11] it was 26 µM; in experiment [12], over 100 µM.

Regarding `Cc1cc2nc(N3C(=O)/C(=C/c4ccc(Cl)cc4)N=C3c3ccccc3)sc2cc1C`, the TGI in [1] is over 100 µM; in [2], 81.7 µM; in [3] it was 92.3 µM; in experiment [4] it was over 100 µM; in experiment [5], 30.3 µM; in experiment [6], over 100 µM. In addition, the TGI is 98.9 µM in experiment [7]; over 100 µM in [8]; over 100 µM in experiment [9]; 89.8 µM in [10]; over 100 µM in experiment [11]; over 100 µM in [12].
